Measurements as given in publication PMC8480901 (PLoS ONE, 2021).
Values joined by “and” are separate entries in the source; they are usually repeats but may differ in a detail not shown here. Identical values can stand only once.

Tested on: human PBMCs
Test: LPS-induced cytokine and chemokine levels in human PBMC supernatant (Luminex, ELISA)
Format: cell-based
Conditions: for TNF-α % reduction / TNF-α [pg/mL], Mean / TNF-α [pg/mL], individual value / GM-CSF % reduction / GM-CSF [pg/mL], Mean / GM-CSF [pg/mL], individual value / IL-1β % reduction / IL-1β [pg/mL], Mean / IL-1β [pg/mL], individual value / IL-6 % reduction / IL-6 [pg/mL], Mean / IL-6 [pg/mL], individual value / IL-8 % reduction / IL-8 [pg/mL], Mean / IL-8 [pg/mL], individual value: LPS-stimulated human PBMC supernatant

SMILES: C=C[C@]1(C)C[C@@H](OC(=O)CS[C@@H]2CC[C@@H](N)C[C@H]2O)[C@]2(C)[C@H](C)CC[C@]3(CCC(=O)[C@H]32)[C@@H](C)[C@@H]1O [Lefamulin]
- TNF-α % reduction (0.03 µM): 19%
- TNF-α [pg/mL], Mean (0.03 µM): 7210 pg/mL
- TNF-α [pg/mL], individual value (0.03 µM): 7885 pg/mL and 6534 pg/mL
- GM-CSF % reduction (0.1 µM): -3%
- GM-CSF [pg/mL], Mean (0.1 µM): 677 pg/mL
- GM-CSF [pg/mL], individual value (0.1 µM): 676 pg/mL and 678 pg/mL
- IL-1β % reduction (0.1 µM): 0.28%
- IL-1β [pg/mL], Mean (0.1 µM): 12749 pg/mL
- IL-1β [pg/mL], individual value (0.1 µM): 11912 pg/mL and 13586 pg/mL
- IL-6 % reduction (0.1 µM): 4%
- IL-6 [pg/mL], Mean (0.1 µM): 33560 pg/mL
- IL-6 [pg/mL], individual value (0.1 µM): 32908 pg/mL and 34212 pg/mL
- IL-8 % reduction (0.1 µM): 6%
- IL-8 [pg/mL], Mean (0.1 µM): 2899 pg/mL
- IL-8 [pg/mL], individual value (0.1 µM): 2852 pg/mL and 2946 pg/mL
- TNF-α % reduction (0.1 µM): 9%
- TNF-α [pg/mL], Mean (0.1 µM): 8157 pg/mL
- TNF-α [pg/mL], individual value (0.1 µM): 7880 pg/mL and 8433 pg/mL
- GM-CSF % reduction (0.3 µM): -3%
- GM-CSF [pg/mL], Mean (0.3 µM): 677 pg/mL
- GM-CSF [pg/mL], individual value (0.3 µM): 692 pg/mL and 662 pg/mL
- IL-1β % reduction (0.3 µM): -12%
- IL-1β [pg/mL], Mean (0.3 µM): 14379 pg/mL
- IL-1β [pg/mL], individual value (0.3 µM): 14814 pg/mL and 13945 pg/mL
- IL-6 % reduction (0.3 µM): -0.0984%
- IL-6 [pg/mL], Mean (0.3 µM): 34943 pg/mL
- IL-6 [pg/mL], individual value (0.3 µM): 35534 pg/mL and 34352 pg/mL
- IL-8 % reduction (0.3 µM): -13%
- IL-8 [pg/mL], Mean (0.3 µM): 3213 pg/mL
- IL-8 [pg/mL], individual value (0.3 µM): 3328 pg/mL and 3097 pg/mL
- TNF-α % reduction (0.3 µM): -1.74%
- TNF-α [pg/mL], Mean (0.3 µM): 9093 pg/mL
- TNF-α [pg/mL], individual value (0.3 µM): 9382 pg/mL and 8804 pg/mL
- GM-CSF % reduction (1 µM): -5.35%
- GM-CSF [pg/mL], Mean (1 µM): 693 pg/mL
- GM-CSF [pg/mL], individual value (1 µM): 646 pg/mL and 740 pg/mL
- IL-1β % reduction (1 µM): -4%
- IL-1β [pg/mL], Mean (1 µM): 13318 pg/mL
- IL-1β [pg/mL], individual value (1 µM): 12337 pg/mL and 14300 pg/mL
- IL-6 % reduction (1 µM): -4%
- IL-6 [pg/mL], Mean (1 µM): 36293 pg/mL
- IL-6 [pg/mL], individual value (1 µM): 36311 pg/mL and 36275 pg/mL
- IL-8 % reduction (1 µM): -10%
- IL-8 [pg/mL], Mean (1 µM): 3154 pg/mL
- IL-8 [pg/mL], individual value (1 µM): 3230 pg/mL and 3077 pg/mL
- TNF-α % reduction (1 µM): -5.41%
- TNF-α [pg/mL], Mean (1 µM): 9420 pg/mL
- TNF-α [pg/mL], individual value (1 µM): 9688 pg/mL and 9151 pg/mL
- GM-CSF % reduction (3 µM): -8%
- GM-CSF [pg/mL], Mean (3 µM): 711 pg/mL
- GM-CSF [pg/mL], individual value (3 µM): 719 pg/mL and 703 pg/mL
- IL-1β % reduction (3 µM): 4%
- IL-1β [pg/mL], Mean (3 µM): 12272 pg/mL
- IL-1β [pg/mL], individual value (3 µM): 10817 pg/mL and 13728 pg/mL
- IL-6 % reduction (3 µM): -8.52%
- IL-6 [pg/mL], Mean (3 µM): 37884 pg/mL
- IL-6 [pg/mL], individual value (3 µM): 36958 pg/mL and 38809 pg/mL
- IL-8 % reduction (3 µM): -3%
- IL-8 [pg/mL], Mean (3 µM): 3044 pg/mL
- IL-8 [pg/mL], individual value (3 µM): 3098 pg/mL and 2991 pg/mL
- TNF-α % reduction (3 µM): -12%
- TNF-α [pg/mL], Mean (3 µM): 9993 pg/mL
- TNF-α [pg/mL], individual value (3 µM): 8826 pg/mL and 11161 pg/mL
- GM-CSF % reduction (10 µM): -9%
- GM-CSF [pg/mL], Mean (10 µM): 717 pg/mL
- GM-CSF [pg/mL], individual value (10 µM): 744 pg/mL and 689 pg/mL
- IL-1β % reduction (10 µM): -2.68%
- IL-1β [pg/mL], Mean (10 µM): 13127 pg/mL
- IL-1β [pg/mL], individual value (10 µM): 12893 pg/mL and 13362 pg/mL
- IL-6 % reduction (10 µM): -16%
- IL-6 [pg/mL], Mean (10 µM): 40496 pg/mL
- IL-6 [pg/mL], individual value (10 µM): 38929 pg/mL and 42063 pg/mL
- IL-8 % reduction (10 µM): 13%
- IL-8 [pg/mL], Mean (10 µM): 2781 pg/mL
- IL-8 [pg/mL], individual value (10 µM): 2867 pg/mL and 2696 pg/mL
- TNF-α % reduction (10 µM): -3.32%
- TNF-α [pg/mL], Mean (10 µM): 9234 pg/mL
- TNF-α [pg/mL], individual value (10 µM): 8438 pg/mL and 10030 pg/mL
- GM-CSF % reduction (30 µM): -38%
- GM-CSF [pg/mL], Mean (30 µM): 905 pg/mL
- GM-CSF [pg/mL], individual value (30 µM): 938 pg/mL and 871 pg/mL
- IL-1β % reduction (30 µM): -19%
- IL-1β [pg/mL], Mean (30 µM): 15264 pg/mL
- IL-1β [pg/mL], individual value (30 µM): 15102 pg/mL and 15425 pg/mL
- IL-6 % reduction (30 µM): -24%
- IL-6 [pg/mL], Mean (30 µM): 43122 pg/mL
- IL-6 [pg/mL], individual value (30 µM): 44285 pg/mL and 41958 pg/mL
- IL-8 % reduction (30 µM): 27%
- IL-8 [pg/mL], Mean (30 µM): 2563 pg/mL
- IL-8 [pg/mL], individual value (30 µM): 2485 pg/mL and 2640 pg/mL
- TNF-α % reduction (30 µM): 33%
- TNF-α [pg/mL], Mean (30 µM): 6044 pg/mL
- TNF-α [pg/mL], individual value (30 µM): 6330 pg/mL and 5758 pg/mL
- GM-CSF % reduction (100 µM): -97%
- GM-CSF [pg/mL], Mean (100 µM): 1293 pg/mL
- GM-CSF [pg/mL], individual value (100 µM): 1274 pg/mL and 1313 pg/mL
- IL-1β % reduction (100 µM): -71%
- IL-1β [pg/mL], Mean (100 µM): 21910 pg/mL
- IL-1β [pg/mL], individual value (100 µM): 21940 pg/mL and 21880 pg/mL
- IL-6 % reduction (100 µM): 23%
- IL-6 [pg/mL], Mean (100 µM): 26707 pg/mL
- IL-6 [pg/mL], individual value (100 µM): 26414 pg/mL and 27001 pg/mL
- IL-8 % reduction (100 µM): 11%
- IL-8 [pg/mL], Mean (100 µM): 2809 pg/mL
- IL-8 [pg/mL], individual value (100 µM): 2812 pg/mL and 2806 pg/mL
- TNF-α % reduction (100 µM): 74%
- TNF-α [pg/mL], Mean (100 µM): 2354 pg/mL
- TNF-α [pg/mL], individual value (100 µM): 2393 pg/mL and 2315 pg/mL
- levels of the measured LPS-induced cytokines, chemokines, or MMP-9 in supernatants (human PBMCs, concentrations tested (100 μM not shown)): little to no reduction
